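Exposure lasted 48 hours, with cells grown in 96-well plates and compounds tested at five concentrations. GI50 marks 50% less growth.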 Active and inactive are the calls of the source. No stated cut-off is given here; in the data, active = GI50 up to about 1.1 µM and inactive = higher.
Key:
Test in all cases: growth of human tumour cells (NCI), 48 h
OVCAR-3 = system: OVCAR-3
SNB-19 = system: SNB-19
LOX IMVI = system: LOX IMVI
M14 = system: M14
EKVX = system: EKVX
MOLT-4 = system: MOLT-4
SK-OV-3 = system: SK-OV-3
HCC 2998 = system: HCC 2998
HOP-62 = system: HOP-62
IGROV-1 = system: IGROV-1
CAKI-1 = system: CAKI-1
SN12C = system: SN12C
A549 = system: A549
SF-295 = system: SF-295
NCI-H23 = system: NCI-H23
RPMI-8226 = system: RPMI-8226
HCT-116 = system: HCT-116
RXF 393 = system: RXF 393
SNB-75 = system: SNB-75
K562 = system: K562

SMILES	GI50 (OVCAR-3)	GI50 (SNB-19)	GI50 (LOX IMVI)	GI50 (M14)	GI50 (EKVX)	GI50 (MOLT-4)	GI50 (SK-OV-3)	GI50 (HCC 2998)	GI50 (HOP-62)	GI50 (IGROV-1)	GI50 (CAKI-1)	GI50 (SN12C)	GI50 (A549)	GI50 (SF-295)	GI50 (NCI-H23)	GI50 (RPMI-8226)	GI50 (HCT-116)	GI50 (RXF 393)	GI50 (SNB-75)	GI50 (K562)
Cc1ccc(/N=N\c2c(O)ccc3cc(S(=O)(=O)O)ccc23)cc1	> 100 µM (inactive)	> 100 µM (inactive)	> 100 µM (inactive)	> 100 µM (inactive)	> 100 µM (inactive)	> 100 µM (inactive)	> 100 µM (inactive)	> 100 µM (inactive)	> 100 µM (inactive)	> 80.2 µM (inactive)	> 100 µM (inactive)	> 100 µM (inactive)	> 100 µM (inactive)	> 100 µM (inactive)	> 100 µM (inactive)	> 100 µM (inactive)	> 100 µM (inactive)	> 100 µM (inactive)	> 100 µM (inactive)	> 100 µM (inactive)
CC1=C(/C=C/C(C)=C/C=C/C(C)=C/C(=O)OC2CC(n3cc(F)c(=O)[nH]c3=O)OC2CO)C(C)(C)CCC1 (stereo not given)	4.72 µM (inactive)	3.34 µM (inactive)	2.15 µM (inactive)	1.35 µM (inactive)	13.9 µM (inactive)	0.2 µM (active)	2.05 µM (inactive)	1.97 µM (inactive)	0.158 µM (active)	7.13 µM (inactive)	0.383 µM (active)	4.5 µM (inactive)	0.153 µM (active)	0.148 µM (active)	2.75 µM (inactive)	0.254 µM (active)	0.748 µM (active)	6.3 µM (inactive)	1.07 µM (active)	1.63 µM (inactive)
O=C(O)CCCCCOc1cccnc1/C=N/NC1=NCCN1	> 100 µM (inactive)	> 100 µM (inactive)	> 100 µM (inactive)	> 100 µM (inactive)	> 100 µM (inactive)	> 100 µM (inactive)	> 100 µM (inactive)	> 100 µM (inactive)	> 100 µM (inactive)	> 100 µM (inactive)	> 100 µM (inactive)	> 100 µM (inactive)	> 100 µM (inactive)	> 100 µM (inactive)	> 100 µM (inactive)	> 100 µM (inactive)	> 100 µM (inactive)	> 100 µM (inactive)	20.7 µM (inactive)	> 100 µM (inactive)
CC(C)[S+]1C2=C(CC(C)(C)CC2=O)[N-]c2ccccc21 (stereo not given)	> 100 µM (inactive)	> 100 µM (inactive)	> 100 µM (inactive)	> 100 µM (inactive)	> 100 µM (inactive)	> 100 µM (inactive)	> 100 µM (inactive)	> 100 µM (inactive)	> 100 µM (inactive)	> 100 µM (inactive)	> 100 µM (inactive)	> 100 µM (inactive)	> 100 µM (inactive)	> 100 µM (inactive)	> 100 µM (inactive)	> 100 µM (inactive)	> 100 µM (inactive)	> 100 µM (inactive)	> 100 µM (inactive)	> 100 µM (inactive)
Cc1ccc2c(c1)C(=O)C(C1OC(=O)c3ccccc31)C2 (stereo not given)	91 µM (inactive)	87.3 µM (inactive)	39.9 µM (inactive)	> 100 µM (inactive)	> 100 µM (inactive)	92.5 µM (inactive)	> 100 µM (inactive)	> 100 µM (inactive)	> 100 µM (inactive)	> 100 µM (inactive)	> 100 µM (inactive)	92.7 µM (inactive)	> 100 µM (inactive)	> 100 µM (inactive)	> 100 µM (inactive)	45.8 µM (inactive)	70.3 µM (inactive)	43.8 µM (inactive)	> 100 µM (inactive)	97.3 µM (inactive)
COc1cc(C/N=c2/nc(N(C)C)ss2)cc(OC)c1OC	> 10 µM (inactive)	> 10 µM (inactive)	2.1 µM (inactive)	> 9.1 µM (inactive)	> 10 µM (inactive)	2.81 µM (inactive)	> 10 µM (inactive)	> 10 µM (inactive)	> 10 µM (inactive)	> 10 µM (inactive)	> 10 µM (inactive)	> 10 µM (inactive)	> 10 µM (inactive)	> 10 µM (inactive)	> 10 µM (inactive)	2.48 µM (inactive)	8.85 µM (inactive)	> 10 µM (inactive)	> 10 µM (inactive)	1.46 µM (inactive)
C=CCSC1=N/C(=C\c2ccccc2)C(=O)N1CC=C	> 47.2 µM (inactive)	> 100 µM (inactive)	26.4 µM (inactive)	67.9 µM (inactive)	22.5 µM (inactive)	2.7 µM (inactive)	> 71.6 µM (inactive)	28.9 µM (inactive)	99.1 µM (inactive)	> 100 µM (inactive)	60.5 µM (inactive)	36.2 µM (inactive)	44.6 µM (inactive)	58.1 µM (inactive)	56 µM (inactive)	24.7 µM (inactive)	29.8 µM (inactive)	20.2 µM (inactive)	33.3 µM (inactive)	3.48 µM (inactive)

Reference: ChEMBL document CHEMBL1201862, “PubChem BioAssay data set” (2004)
